# Patent publication US7125889B2, “Treating of cardiovascular and related pathologies” (Medicure International Inc., priority 1999, dated 2006)
# Several values for one entry are separate records, joined by “and”; a condition that tells them apart may be missing. Equal entries are not always repeated.
# Experiments:
# isolated rat hearts = assay: Ischemia reperfusion in isolated rat hearts (Langendorff), left ventricular pressures; conditions: for % recovery (LVDP) / LVEDP / LVSP: 30 min ischemia, 60 min reperfusion; for % recovery (LVDP) / LVEDP / LVSP / LVDP (A) / LVDP (B): P-5-P 15 μM; for LVDP (A): after ischemia (30 min ischemia, 60 min reperfusion); for LVDP (B): before ischemia
# Protocol: Male Sprague-Dawley rats weighing 250–300 g are anaesthetized with a mixture of ketamine (60 mg/kg) and xylazine (10 mg/kg).
# The left ventricular end diastolic pressure (LVEDP) is adjusted at 10 mmHg at the beginning of the experiment. […] All hearts are stabilized for a period of 30 mm and then randomly distributed into nine different experimental groups (n=5–8 per group). The experimental groups are defined as follows: • 1) Control group (control hearts are further perfused for 90 minutes for a total of […] of continuous perfusion); • 2) Ischemia reperfusion group (Ischemia reperfusion hearts are made globally ischemic by stopping the coronary flow completely for 30 mm and then the hearts are reperfused for 60 mm); • 3) P-5-P (15 μM) treated group; • 4) captopril (100 μM) treated group; • 5) verapamil (0.01 μM)) treated group; […]) treated group; […]) treated group; • 8) P-5-P+captopril treated group; • 9) P-5-P+verapamil treated group; • 10) P-5-P+propranolol treated group; • 11) P-5-P+PPADS treated group.
# Drug treatment is started 10 min before global ischemia followed by 30 min global ischemia and 60 min reperfusion. At the end of some experiments, the hearts are quickly freeze-clamped with a liquid nitrogen precooled Wollenberger tong. Rats are housed in clear cages in a temperature and humidity controlled room on a 12 hr light-dark cycle. Food and water are supplied ad libitum.
# [1] = system: rat model of coronary ligation; assay: Coronary artery ligation (myocardial infarction), mortality; format: in vivo; conditions: 21 days after coronary occlusion; once daily by gastric tube: P-5-P 10 mg/kg, captopril 100 mg/kg, propranolol 50 mg/kg, verapamil 25 mg/kg, aspirin 100 mg/kg; untreated 35%
# Description: The animals were anesthetized with ether, the skin incised along the left sternal border, the fourth rib cut proximal to the sternum, and retractors inserted. The pericardial sac was perforated and the heart was exteriorized through the intercostal space. The left coronary artery was ligated about 2 mm from its origin with a 6–0 silk suture and the heart was repositioned in the chest.
# Rats are anesthetized with 1–5% isoflurane in 100% O2 (2 L flow rate). The skin is incised along the left sterna border and the 4th rib is cut proximal to the sternum and a retractor inserted. The pericardial sac is opened and the heart externalized. The left anterior descending coronary artery is ligated approximately 2 mm from its origin on the aorta using a 6–0 silk suture. The heart is then repositioned in the chest and the incision closed via purse-string sutures.
# Sham operated rats undergo identical treatment except that the artery is not ligated. […] Unless indicated in the text, the experimental animals showing infarct size >30% of the left ventricle are used in this study. All animals are allowed to recover, allowed to receive food and water ad libitum, and are maintained for a period of 21 days for Electrocardiogram (ECG), hemodynamic, and histological assessment.
# While the complete healing of the scar occurs within 3 weeks of the coronary occlusion, mild, moderate and severe stages of congestive heart failure have been reported to occur at 4, 8 and 16 weeks after ligation.
# The rats are housed in clear cages in a temperature and humidity controlled room, on a 12 hour light-dark cycle. Food and water are supplied ad libitum. After surgery, rats are randomly assigned to treatment or non-treatment in both sham and experimental groups. Randomization of animals was performed and treatment begins 1 hour after coronary occlusion and continues for 21 days. The total duration of experiments in each case is 21 days. The groups are as follows: • 1) sham operated; • 2) coronary artery ligated (treatment with equal volumes of saline); • 3) coronary artery ligated (treated with 10 mg/kg P-5-P ); • 4) coronary artery ligated (treated with 100 mg/kg captopril); • 5) coronary artery ligated (treated with 50 mg/kg propranolol); • 6) coronary artery ligated (treated with 100 mg/kg aspirin); • 7) coronary artery ligated (treated with 25 mg/kg verapamil); • 8) coronary artery ligated (treated with 10 mg/kg P-5-P+100 mg/kg captopril); • 9) coronary artery ligated (treated with 10 mg/kg P-5-P+50 mg/kg propranolol); • 10) coronary artery ligated (treated with 10 mg/kg P-5-P+100 mg/kg aspirin); • 11) coronary artery ligated (treated with 10 mg/kg P-5-P+25 mg/kg verapamil). […]
# [2] = system: rat model of coronary ligation; assay: Hemodynamic changes, heart and scar weight after coronary artery ligation; format: in vivo; conditions: 21 days after coronary occlusion
# Protocol: The rats are housed in clear cages in a temperature and humidity controlled room, on a 12 hour light-dark cycle. Food and water are supplied ad libitum. After surgery, rats are randomly assigned to treatment or non-treatment in both sham and experimental groups. Randomization of animals was performed and treatment begins 1 hour after coronary occlusion and continues for 21 days. The total duration of experiments in each case is 21 days. The groups are as follows: • 1) sham operated; • 2) coronary artery ligated (treatment with equal volumes of saline); • 3) coronary artery ligated (treated with 10 mg/kg P-5-P ); • 4) coronary artery ligated (treated with 100 mg/kg captopril); • 5) coronary artery ligated (treated with 50 mg/kg propranolol); • 6) coronary artery ligated (treated with 100 mg/kg aspirin); • 7) coronary artery ligated (treated with 25 mg/kg verapamil); • 8) coronary artery ligated (treated with 10 mg/kg P-5-P+100 mg/kg captopril); • 9) coronary artery ligated (treated with 10 mg/kg P-5-P+50 mg/kg propranolol); • 10) coronary artery ligated (treated with 10 mg/kg P-5-P+100 mg/kg aspirin); • 11) coronary artery ligated (treated with 10 mg/kg P-5-P+25 mg/kg verapamil).
# P-5-P (10 mg/kg), captopril (100 mg/kg), propranolol (50 mg/kg), verapamil (25 mg/kg) and aspirin (100 mg/kg) were administered once daily by gastric tube.
# The animals are prepared and grouped as described in Example 10 and were anesthetized with a solution of ketamine/xylazine which was injected. To maintain adequate ventilation, the trachea was intubated; the right carotid artery was exposed for introducing a microtip pressure transducer (model SPR-249, Millar, Houston, Tex.) into the left ventricle. The catheter was secured with a silk ligature around the artery, and various hemodynamic parameters such as left ventricular systolic pressure (LVSP), left ventricular end diastolic pressure (LVEDP), rate of contraction (+dp/dt), rate of relaxation (−dP/dt) were recorded and calculated on a computer system using a Acknowledge 3.1 software.
# Once the hemodynamic parameters were measured the animals were sacrificed and hearts removed for measurement of heart weight, right ventricular weight, left ventricular weight and scar weight. Because complete healing of the scar in rats after coronary occlusion requires approximately 3 weeks, scar weight were measured only at 21 days.
# [3] = system: 10% sucrose induced hypertension in rats; assay: 10% sucrose induced hypertension, systolic blood pressure (tail cuff); format: in vivo, rat
# Description: Zein et al., in their publication entitled Sugar-Induced Blood Pressure Elevations Over the Lifespan of Three Substrains of Wistar Rats in Am. Coll. […] Hulman et al. in their publication entitled The Effect of Excess Dietary Sucrose on Growth, Blood Pressure, and Metabolism in Developing Sprague-Dawley Rats in Pediatr. […] Reaven et al., in their publication entitled Sugar-Induced Hypertension in Sprague-Dawley Rats in Am.
# The blood pressure is monitored using the tail cuff method. The SBP is detected on an amplifier and the Acknowledge™ computer software program is used to determine the calculations.
# The effect of concurrent administration of pyridoxal-5′-phosphate and captopril or verapamil on systolic blood pressure (marker of hypertension) in 10% sucrose induced hypertension in rats is determined.
structure (smiles),measurement,setting,value
"C[C@H](CS)C(=O)N1CCC[C@H]1C(=O)O [Captopril, captopril, reference compound]",% recovery (LVDP),isolated rat hearts; Captopril 100 μM,61.4 ± 5.2 %
same,LVEDP,isolated rat hearts; Captopril 100 μM,54 ± 6.7 mmHg
same,LVSP,isolated rat hearts; Captopril 100 μM,101 ± 14.6 mmHg
same,% recovery (LVDP),"isolated rat hearts; Captopril 100 μM, listed as captopril",61.4%
same,LVDP (A),isolated rat hearts; Captopril 100 μM,47 ± 8.6
same,LVDP (B),isolated rat hearts; Captopril 100 μM,78 ± 10.9
same,mortality rate,[1],15%
"Cc1ncc(COP(=O)(O)O)c(C=O)c1O [Example P5P, pyridoxal-5′-phosphate]",% recovery (LVDP),isolated rat hearts; Captopril 100 μM,78.2 ± 3.3 %
same,LVEDP,isolated rat hearts; Captopril 100 μM,35 ± 4.8 mmHg
same,LVSP,isolated rat hearts; Captopril 100 μM,98 ± 8.2 mmHg
same,% recovery (LVDP),"isolated rat hearts; Captopril 100 μM, listed as P-5-P",78.2%
same,% recovery (LVDP),isolated rat hearts; PPADS 100 μM,78.2 ± 3.3%
same,LVEDP,isolated rat hearts; PPADS 100 μM,35 ± 4.8 mmHg
same,LVSP,isolated rat hearts; PPADS 100 μM,98 ± 8.2 mmHg
same,% recovery (LVDP),"isolated rat hearts; PPADS 100 μM, listed as P-5-P",78.2%
same,% recovery (LVDP),isolated rat hearts; Propranolol 3 μM,78.2 ± 3.3 %
same,LVEDP,isolated rat hearts; Propranolol 3 μM,35 ± 4.8 mmHg
same,LVSP,isolated rat hearts; Propranolol 3 μM,98 ± 8.2 mmHg
same,% recovery (LVDP),"isolated rat hearts; Propranolol 3 μM, listed as P-5-P",78.2%
same,% recovery (LVDP),isolated rat hearts; Verapamil 0.01 μM,78.2 ± 3.3 %
same,LVEDP,isolated rat hearts; Verapamil 0.01 μM,35 ± 4.8 mmHg
same,LVSP,isolated rat hearts; Verapamil 0.01 μM,98 ± 8.2 mmHg
same,% recovery (LVDP),"isolated rat hearts; Verapamil 0.01 μM, listed as P-5-P",78.2%
same,LVDP (A),isolated rat hearts; Captopril 100 μM,63 ± 5
same,LVDP (A),isolated rat hearts; PPADS 100 μM,63 ± 5
same,LVDP (A),isolated rat hearts; Propranolol 3 μM,63 ± 5
same,LVDP (A),isolated rat hearts; Verapamil 0.01 μM,63 ± 5
same,LVDP (B),isolated rat hearts; Captopril 100 μM,80 ± 3.8
same,LVDP (B),isolated rat hearts; PPADS 100 μM,80 ± 3.8
same,LVDP (B),isolated rat hearts; Propranolol 3 μM,80 ± 3.8
same,LVDP (B),isolated rat hearts; Verapamil 0.01 μM,80 ± 3.8
same,benefit in ischemia reperfusion injury,"isolated rat hearts; given alone, summary of Tables I-IV",significant benefit
same,mortality rate,[1],15% and 10%
same,effect on scar weight,[2]; FIGS. 5-8,significant beneficial effect
same,effect on rate of contraction (+dP/dt),[2]; FIGS. 9-12,significant beneficial effect
same,effect on left ventricular end diastolic pressure (LVEDP),[2]; FIGS. 17-20,significant beneficial effect
same,effect on whole heart weight,[2]; FIGS. 21-24,significant beneficial effect
same,effect on right ventricular weight,[2]; FIGS. 25-28,significant beneficial effect
same,effect on systolic blood pressure,"[3]; treatment 1 week prior to inducing hypertension with a sucrose diet, FIGS. 29A, 29B",significant beneficial effect
same,effect on systolic blood pressure,"[3]; treatment the same day as inducing hypertension with a sucrose diet, FIGS. 30A, 30B",significant beneficial effect
same,effect on systolic blood pressure,"[3]; treatment two weeks after inducing hypertension with a sucrose diet, FIGS. 31A, 31B",significant beneficial effect
"Cc1nc(N=Nc2ccc(S(=O)(=O)O)cc2S(=O)(=O)O)c(COP(=O)(O)O)c(C=O)c1O [PPADS, pyridoxal phosphate-6-azophenyl-2′,4′-disulphonic acid, reference compound]",% recovery (LVDP),isolated rat hearts; PPADS 100 μM,61% and 61 ± 4.8 %
same,LVEDP,isolated rat hearts; PPADS 100 μM,57 ± 6.3 mmHg
same,LVSP,isolated rat hearts; PPADS 100 μM,115 ± 11.5 mmHg
same,LVDP (A),isolated rat hearts; PPADS 100 μM,58 ± 13.6
same,LVDP (B),isolated rat hearts; PPADS 100 μM,92 ± 15.2
"CC(C)NCC(O)COc1cccc2ccccc12 (stereo not drawn) [Propranolol, propranolol, reference compound]",% recovery (LVDP),isolated rat hearts; Propranolol 3 μM,74 ± 4.9 %
same,LVEDP,isolated rat hearts; Propranolol 3 μM,27 ± 6.6 mmHg
same,LVSP,isolated rat hearts; Propranolol 3 μM,72 ± 15.1 mmHg
same,% recovery (LVDP),"isolated rat hearts; Propranolol 3 μM, listed as propranolol",74%
same,LVDP (A),isolated rat hearts; Propranolol 3 μM,45 ± 9.7
same,LVDP (B),isolated rat hearts; Propranolol 3 μM,61 ± 10.8
"COc1ccc(CCN(C)CCCC(C#N)(c2ccc(OC)c(OC)c2)C(C)C)cc1OC (stereo not drawn) [Verapamil, verapamil, reference compound]",% recovery (LVDP),isolated rat hearts; Verapamil 0.01 μM,43 ± 6.6%
same,LVEDP,isolated rat hearts; Verapamil 0.01 μM,55 ± 5.1 mmHg
same,LVSP,isolated rat hearts; Verapamil 0.01 μM,78 ± 7.7 mmHg
same,% recovery (LVDP),"isolated rat hearts; Verapamil 0.01 μM, listed as verapamil",43%
same,LVDP (A),isolated rat hearts; Verapamil 0.01 μM,23 ± 4.5
same,LVDP (B),isolated rat hearts; Verapamil 0.01 μM,54 ± 9.1
same,mortality rate,[1],25%
CC(=O)Oc1ccccc1C(=O)O [aspirin],mortality rate,[1],25%
